Source: ChEMBL document CHEMBL1221184, “Identifying off-target effects and hidden phenotypes of drugs in human cells” (Nat Chem Biol, 2006)
Activity calls are given as the source filed them. The calls are words filed in the database; no cut-off is given here. Positions of bridges follow the written chain, without caps; N, C: chain ends. Residues, ends and D or L forms follow the SMILES beside them.

Columns and labels:
[1] = test system: PC-3; experiment: Antiproliferative activity against human PC3 cells at 1 uM after 120 hrs by MTT assay relative to DMSO; assay type: functional
[2] = test system: PC-3; experiment: Antiproliferative activity against human PC3 cells at 25 uM after 120 hrs by MTT assay relative to DMSO; assay type: functional
[3] = test system: PC-3; experiment: Antiproliferative activity against human PC3 cells at 500 nM after 120 hrs by MTT assay relative to DMSO; assay type: functional
[4] = test system: PC-3; experiment: Antiproliferative activity against human PC3 cells at 100 nM after 120 hrs by MTT assay relative to DMSO; assay type: functional
[5] = test system: PC-3; experiment: Antiproliferative activity against human PC3 cells at 50 uM after 120 hrs by MTT assay relative to DMSO; assay type: functional
[6] = test system: PC-3; experiment: Antiproliferative activity against human PC3 cells at 30 uM after 120 hrs by MTT assay relative to DMSO; assay type: functional
[7] = molecular target: Transcription factor Jun (Homo sapiens) (UniProt P05412); experiment: Activation of c-Jun expressed in HEK293 cells assessed as induction of protein interaction with Pin1 by EYFP based reporter gene assay; assay type: cell-based
[8] = test system: PC-3; experiment: Antiproliferative activity against human PC3 cells at 10 uM after 120 hrs by MTT assay relative to DMSO; assay type: functional
[9] = molecular target: Cyclin-dependent kinase 1 (Homo sapiens) (UniProt P06493); experiment: Effect on Cdc2 expressed in HEK293 cells assessed as effect on Cdc2:Cdc25C interaction complexes in presence of camptothecin by EYFP and/or YFP Venus fragment based reporter gene assay; assay type: cell-based
[10] = molecular target: Cyclin-dependent kinase 1 (Homo sapiens) (UniProt P06493); experiment: Effect on Cdc2 expressed in HEK293 cells assessed as effect on Cdc2:Cdc25A interaction complexes in presence of camptothecin by EYFP and/or YFP Venus fragment based reporter gene assay; assay type: cell-based
[11] = molecular target: Transcription factor Jun (Homo sapiens) (UniProt P05412); experiment: Inhibition of c-Jun expressed in HEK293 cells assessed as induction of protein interaction in presence of camptothecin with Pin1 by EYFP based reporter gene assay; assay type: cell-based
[12] = molecular target: Cofilin-1 (Homo sapiens) (UniProt P23528); experiment: Effect on cofilin1 expressed in HEK293 cells assessed as effect on cofilin1; Limk2 interaction complexes in presence of camptothecin by EYFP and/or YFP Venus fragment based reporter gene assay; assay type: cell-based
[13] = test system: PC-3; experiment: Antiproliferative activity against human PC3 cells at 5 uM after 120 hrs by MTT assay relative to DMSO; assay type: functional
[14] = test system: PC-3; experiment: Antiproliferative activity against human PC3 cells at 250 nM after 120 hrs by MTT assay relative to DMSO; assay type: functional

Chain of Transcription factor Jun (Homo sapiens) (P05412 whole entry, the tested form may be a part): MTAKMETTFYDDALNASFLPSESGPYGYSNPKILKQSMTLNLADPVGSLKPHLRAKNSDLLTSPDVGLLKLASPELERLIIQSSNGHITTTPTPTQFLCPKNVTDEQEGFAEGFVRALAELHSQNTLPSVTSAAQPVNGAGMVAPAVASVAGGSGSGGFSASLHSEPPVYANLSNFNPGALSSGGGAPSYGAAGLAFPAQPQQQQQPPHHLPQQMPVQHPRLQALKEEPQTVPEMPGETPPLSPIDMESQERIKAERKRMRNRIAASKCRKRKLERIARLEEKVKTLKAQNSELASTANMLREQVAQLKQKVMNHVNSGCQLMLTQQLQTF
Chain of Cyclin-dependent kinase 1 (Homo sapiens) (P06493 whole entry, looked up, the tested form may be a part): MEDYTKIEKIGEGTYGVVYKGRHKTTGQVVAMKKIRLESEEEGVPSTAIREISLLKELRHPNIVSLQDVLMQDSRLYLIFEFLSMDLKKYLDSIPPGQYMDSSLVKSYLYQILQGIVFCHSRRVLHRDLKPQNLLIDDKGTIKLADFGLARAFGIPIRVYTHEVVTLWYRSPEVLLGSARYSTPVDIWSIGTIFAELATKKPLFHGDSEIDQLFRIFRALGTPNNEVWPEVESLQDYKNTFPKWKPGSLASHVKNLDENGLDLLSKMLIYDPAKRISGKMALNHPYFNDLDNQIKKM
Chain of Cofilin-1 (Homo sapiens) (P23528 whole entry, the tested form may be a part): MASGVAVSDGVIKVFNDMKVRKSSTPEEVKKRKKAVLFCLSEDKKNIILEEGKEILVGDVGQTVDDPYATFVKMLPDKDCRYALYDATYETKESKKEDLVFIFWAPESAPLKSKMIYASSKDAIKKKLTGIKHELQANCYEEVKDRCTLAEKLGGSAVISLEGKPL

CN1CC(=O)N2[C@H](c3ccc4c(c3)OCO4)c3[nH]c4ccccc4c3C[C@@H]2C1=O
fold change (FC) [1]: 1.052

COc1ccc(C2CNC(=O)C2)cc1OC1CCCC1 (configuration not stated) [ROLIPRAM]
fold change (FC) [2]: 1.065

O=C(c1ccc(OCCN2CCCCC2)cc1)c1c(-c2ccc(O)cc2)sc2cc(O)ccc12 [RALOXIFENE]
fold change (FC) [3]: 1.06

CN(C)CCOc1ccc(/C(=C(/CCCl)c2ccccc2)c2ccccc2)cc1 [TOREMIFENE]
fold change (FC) [3]: 1.001

CC[C@H](C)[C@H](NC(=O)[C@@H](NC(=O)[C@H](CC(=O)O)NC(=O)[C@H](CCC(N)=O)NC(=O)[C@H](Cc1cnc[nH]1)NC(=O)[C@@H]1CSSC[C@H](N)C(=O)N[C@@H](CO)C(=O)N[C@H]2CSSC[C@H](NC(=O)[C@H](CCC(=O)O)NC(=O)[C@H](CCCCN)NC(=O)[C@H](CC(=O)O)NC(=O)[C@H]([C@@H](C)O)NC(=O)[C@H](CCSC)NC(=O)[C@H](CC(=O)O)NC(=O)[C@H](CCCCN)NC2=O)C(=O)N[C@@H](CC(C)C)C(=O)N[C@@H](Cc2ccc(O)cc2)C(=O)N[C@@H](Cc2ccccc2)C(=O)N1)C(C)C)C(=O)N[C@@H](Cc1c[nH]c2ccccc12)C(=O)O (H-CSCKDMTDKECLYFCHQDVIW-OH; disulfide 1-15, 3-11)
fold change (FC) [4]: 1.037

Br.Cc1ccc(C(=O)Cn2c3c(sc2=N)CCCC3)cc1
fold change (FC) [5]: 0.424

CC(C)(Oc1ccc(C2CC2(Cl)Cl)cc1)C(=O)O (configuration not stated) [CIPROFIBRATE]
fold change (FC) [6]: 1.047
Activity [7]: Active

Cc1ccc(C)c(OCCCC(C)(C)C(=O)O)c1 [GEMFIBROZIL]
fold change (FC) [6]: 1.046
Activity [7]: Active

CC[C@@]1(O)C(=O)OCc2c1cc1n(c2=O)Cc2cc3ccccc3nc2-1 [CAMPTOTHECIN]
fold change (FC) [3]: 0.258

O=c1cc(-c2ccc(O)cc2)oc2cc(O)cc(O)c12 [APIGENIN]
fold change (FC) [5]: 0.552

C[C@]12CC[C@@H]3c4ccc(O)cc4C[C@@H](CCCCCCCCC[S+]([O-])CCCC(F)(F)C(F)(F)F)[C@H]3[C@@H]1CC[C@@H]2O (some centres not stated) [FULVESTRANT]
fold change (FC) [3]: 1.068

O=C1C=C2C(=CCOC2O)O1 (configuration not stated) [PATULIN]
fold change (FC) [8]: 0.23
Activity [9]: Active
Activity [10]: Active
Activity [11]: Active
Activity [12]: Active

O=c1cc(N2CCOCC2)oc2c(-c3ccccc3)cccc12 [LY-294002]
fold change (FC) [2]: 0.33

CC/C(=C(\c1ccccc1)c1ccc(OCCN(C)C)cc1)c1ccccc1 [TAMOXIFEN]
fold change (FC) [3]: 1.041

C[C@]12CC[C@@H]3c4ccc(O)cc4CC[C@H]3[C@@H]1CC[C@@H]2O [ESTRADIOL]
fold change (FC) [3]: 0.997

C[S+]([O-])c1ccc(-c2nc(-c3ccc(F)cc3)c(-c3ccncc3)[nH]2)cc1 (configuration not stated) [SB-203580]
fold change (FC) [2]: 0.721

Cc1ccc(S(=O)(=O)/C=C/C#N)cc1
fold change (FC) [8]: 0.231
Activity [9]: Active

CCCc1nn(C)c2c(=O)[nH]c(-c3cc(S(=O)(=O)N4CCN(C)CC4)ccc3OCC)nc12
fold change (FC) [1]: 1.037

C[C@@H](N)[C@H]1CC[C@H](C(=O)Nc2ccncc2)CC1 [Y-27632]
fold change (FC) [2]: 0.958

C(=C\c1ccccc1)/CN1CCN(C(c2ccccc2)c2ccccc2)CC1
Activity [9]: Active
Activity [10]: Active
Activity [11]: Active
Activity [12]: Active

C[C@@H]1C[C@H]2[C@@H]3CCC4=CC(=O)C=C[C@]4(C)[C@@]3(F)[C@@H](O)C[C@]2(C)[C@@]1(O)C(=O)CO [DEXAMETHASONE]
fold change (FC) [3]: 1.127

NS(=O)(=O)Cc1noc2ccccc12 [ZONISAMIDE]
fold change (FC) [13]: 1.035

C/C(=C\c1csc(C)n1)[C@@H]1C[C@@H]2O[C@@H]2CCC[C@H](C)[C@H](O)[C@@H](C)C(=O)C(C)(C)[C@@H](O)CC(=O)O1 [EPOTHILONE A]
fold change (FC) [4]: 0.291

CCCc1nc(C)c2c(=O)nc(-c3cc(S(=O)(=O)N4CCN(CC)CC4)ccc3OCC)[nH]n12
fold change (FC) [1]: 1.058

CC(/C=C/C(=O)NO)=C\[C@@H](C)C(=O)c1ccc(N(C)C)cc1 [TRICHOSTATIN]
fold change (FC) [13]: 0.268

Cn1c2ccccc2c2c3c(c4c5ccccc5n(CCC#N)c4c21)CNC3=O [GO-6976]
fold change (FC) [4]: 1.119

CC1=C(/C=C/C(C)=C/C=C/C(C)=C/C(=O)O)C(C)(C)CCC1 [TRETINOIN]
fold change (FC) [13]: 0.969

Cn1c(=O)c2c(ncn2C)n(C)c1=O [CAFFEINE]
fold change (FC) [5]: 0.952

NS(=O)(=O)c1ccc(-n2nc(C(F)(F)F)cc2-c2ccccc2)cc1
fold change (FC) [3]: 1.023

CCCCCCCC/C=C\CCCCCCCC(=O)OC[C@@H](O)COP(=O)(O)O [LYSOPHOSPHATIDIC ACID]
fold change (FC) [13]: 1.018

CNc1cc2c(Nc3cccc(Br)c3)ncnc2cn1
fold change (FC) [1]: 1.022

Cc1ccc(NC(=O)c2cccc(N(C)C)c2)cc1NC(=O)c1ccc(O)cc1
fold change (FC) [13]: 0.97

COc1ccc(-n2nc(C(F)(F)F)cc2-c2ccc(Cl)cc2)cc1 [SC-560]
fold change (FC) [14]: 1.036

NC1=NC(=O)/C(=C2/CCNC(=O)c3[nH]ccc32)N1
fold change (FC) [13]: 1.007

CO[C@H]1C[C@@H]2CC[C@@H](C)[C@@](O)(O2)C(=O)C(=O)N2CCCC[C@H]2C(=O)O[C@H]([C@H](C)C[C@@H]2CC[C@@H](O)[C@H](OC)C2)CC(=O)[C@H](C)/C=C(\C)[C@@H](O)[C@@H](OC)C(=O)[C@H](C)C[C@H](C)/C=C/C=C/C=C/1C [SIROLIMUS]
fold change (FC) [14]: 0.401

COc1cc2ncc(-c3ccccc3)nc2cc1OC
fold change (FC) [13]: 0.94

O=C1CCC(N2C(=O)c3ccccc3C2=O)C(=O)N1 (configuration not stated) [THALIDOMIDE]
fold change (FC) [14]: 0.992

CC(O)(CS(=O)(=O)c1ccc(F)cc1)C(=O)Nc1ccc(C#N)c(C(F)(F)F)c1 (configuration not stated) [BICALUTAMIDE]
fold change (FC) [3]: 1.005

CC(C)C[C@H](NC(=O)c1ccc(NCc2c[nH]cn2)cc1-c1cccc2ccccc12)C(=O)O
fold change (FC) [13]: 0.966

Ic1cccc(CSc2nnc(-c3ccncc3)o2)c1
fold change (FC) [1]: 1.095

CC[C@H](CO)Nc1nc(NCc2ccccc2)c2ncn(C(C)C)c2n1 [SELICICLIB]
fold change (FC) [13]: 0.797

Clc1ccccc1C(c1ccccc1)(c1ccccc1)n1ccnc1 [CLOTRIMAZOLE]
fold change (FC) [8]: 0.708
Activity [9]: Active
Activity [10]: Active
Activity [11]: Active
Activity [12]: Active

COC[C@H]1OC(=O)c2coc3c2[C@@]1(C)C1=C(C3=O)[C@@H]2CCC(=O)[C@@]2(C)C[C@H]1OC(C)=O [WORTMANNIN]
fold change (FC) [3]: 0.856
